Assay results: US10106534B2 (CELGENE QUANTICEL RESEARCH, INC., priority 2014, dated 2018)

Assays:
JMJD2C = JMJD2C (Homo sapiens (Human), UniProt Q9H3R0); assay: In vitro enzyme inhibition assay for JMJD2C activity (TR-FRET); format: biochemical
Outline: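 Demethylation product H3K9me2 quantified by TR-FRET ratio 665/615 after EDTA stop and 1 h with Eu-anti-H3K9me2 and streptavidin-APC; IC50 by curve fit. Reaction: 0.3 nM JMJD2C (AA 2-372, baculovirus), 2 μM α-ketoglutarate, 300 nM biotin-H3K9me3 peptide, pH 7.3 HEPES with Fe(II)/ascorbate, 30 min room temperature.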

JMJD3 = JMJD3 (Homo sapiens, UniProt O15054); assay: In vitro enzyme inhibition assay for JMJD3 activity (TR-FRET); format: biochemical
[1] = tested on: KYSE-150 esophageal carcinoma cell line; assay: In vitro cell-based assay: cellular proliferation via BrdU incorporation (ELISA); design: species or system human; conditions: Homo sapiens, KYSE-150, 168 hours compound incubation
Outline: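 BrdU incorporation during S-phase, detected colorimetrically at 450 nm by peroxidase ELISA, measured proliferation after 168 h compound exposure.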

Chain of JMJD2C (Q9H3R0 2-372): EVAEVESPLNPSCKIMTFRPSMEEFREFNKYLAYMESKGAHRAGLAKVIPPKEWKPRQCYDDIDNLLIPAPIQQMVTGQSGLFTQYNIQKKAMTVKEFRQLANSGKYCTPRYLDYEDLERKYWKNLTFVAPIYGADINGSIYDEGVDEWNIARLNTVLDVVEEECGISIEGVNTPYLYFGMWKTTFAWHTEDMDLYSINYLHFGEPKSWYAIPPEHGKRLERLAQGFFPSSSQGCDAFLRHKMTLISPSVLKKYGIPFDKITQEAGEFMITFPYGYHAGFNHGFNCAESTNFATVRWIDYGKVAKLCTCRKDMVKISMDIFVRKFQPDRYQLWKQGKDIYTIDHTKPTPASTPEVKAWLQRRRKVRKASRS

SMILES	IC50 (JMJD2C) [nM]	IC50 (JMJD3) [nM]	IC50 [1] [nM]
CN(c1ccc(N2CCC2)cc1)c1ccc2c(c1)OCC[C@H]2CNc1cnccc1C(=O)O [Example 183, 3-({[(4R)-7-{[4-(azetidin-1-yl)phenyl](methyl)amino}-3,4-dihydro-2H-1-benzopyran-4-yl]methyl}amino)pyridine-4-carboxylic acid]	100 to 1000	1000 to 10000	≤ 100
O=C(O)c1ccncc1NCC1CCCc2nc(-c3ccccc3)ccc21 (stereo not drawn) [Example 25]	100 to 1000	100 to 1000	> 10000
CN(c1ccc(N2CCOCC2)cc1)c1ccc2c(c1)CCC[C@H]2CNc1cnccc1C(=O)O [Example 170, 3-({[(1R)-6-{methyl[4-(morpholin-4-yl)phenyl]amino}-1,2,3,4-tetrahydronaphthalen-1-yl]methyl}amino)pyridine-4-carboxylic acid]	100 to 1000	1000 to 10000	≤ 100
CN(c1ccc(OC(F)F)cc1)c1ccc2c(c1)OCC[C@H]2CNc1cnccc1C(=O)O [Example 190, 3-({[(4R)-7-{[4-(difluoromethoxy)phenyl](methyl)amino}-3,4-dihydro-2H-1-benzopyran-4-yl]methyl}amino)pyridine-4-carboxylic acid]	100 to 1000	1000 to 10000	≤ 100
CN(c1cccc(F)c1)c1ccc2c(c1)OCC[C@H]2CNc1cnccc1C(=O)O [Example 20, 3-({[(4R)-7-[(3-fluorophenyl)(methyl)amino]-3,4-dihydro-2H-1-benzopyran-4-yl]methyl}amino)pyridine-4-carboxylic acid]	100 to 1000	1000 to 10000	≤ 100
CCc1ccc(N(C)c2ccc3c(c2)OCC[C@H]3CNc2cnccc2C(=O)O)nc1 [Example 157, 3-({[(4R)-7-[(5-ethylpyridin-2-yl)(methyl)amino]-3,4-dihydro-2H-1-benzopyran-4-yl]methyl}amino)pyridine-4-carboxylic acid]	100 to 1000	1000 to 10000	≤ 100

The next lines start with the values.

IC50 (JMJD2C) [nM]	IC50 (JMJD3) [nM]	IC50 [1] [nM]	SMILES
100 to 1000	1000 to 10000	≤ 100	COCc1ccc(N(C)c2ccc3c(c2)CCC[C@H]3CNc2cnccc2C(=O)O)cc1 [Example 164, 3-({[(1R)-6-{[4-(methoxymethyl)phenyl](methyl)amino}-1,2,3,4-tetrahydronaphthalen-1-yl]methyl}amino)pyridine-4-carboxylic acid]
100 to 1000	1000 to 10000	≤ 100	CN(c1ccc(Cl)cc1)c1ccc2c(c1)OCC[C@H]2CNc1cnccc1C(=O)O [Example 23, 3-({[(4R)-7-[(4-chlorophenyl)(methyl)amino]-3,4-dihydro-2H-1-benzopyran-4-yl]methyl}amino)pyridine-4-carboxylic acid]
100 to 1000	1000 to 10000	100 to 1000	O=C(O)c1ccncc1NCC1CCOc2cc(N3CCc4ccccc43)ccc21 (stereo not drawn) [Example 17, 3-({[7-(2,3-dihydro-1H-indol-1-yl)-3,4-dihydro-2H-1-benzopyran-4-yl]methyl}amino)pyridine-4-carboxylic acid]
100 to 1000	1000 to 10000	≤ 100	CCN(c1ccccc1)c1ccc2c(c1)OCC[C@H]2CNc1cnccc1C(=O)O [Example 24, 3-({[(4R)-7-[ethyl(phenyl)amino]-3,4-dihydro-2H-1-benzopyran-4-yl]methyl}amino)pyridine-4-carboxylic acid]
100 to 1000	1000 to 10000	≤ 100	Cc1ccc(N(C)c2ccc3c(c2)OCC[C@H]3CNc2cnccc2C(=O)O)cc1 [Example 22, 3-({[(4R)-7-[methyl(4-methylphenyl)amino]-3,4-dihydro-2H-1-benzopyran-4-yl]methyl}amino)pyridine-4-carboxylic acid]
100 to 1000	1000 to 10000	1000 to 10000	CN(c1ccccc1)c1ccc2c(n1)CCCC2CNc1cnccc1C(=O)O (stereo not drawn) [Example 26, 3-[({2-[methyl(phenyl)amino]-5,6,7,8-tetrahydroquinolin-5-yl}methyl)amino]pyridine-4-carboxylic acid]
100 to 1000	1000 to 10000	≤ 100	CN(c1ccc(C2CCOCC2)cc1)c1ccc2c(c1)OCC[C@H]2CNc1cnccc1C(=O)O [Example 202, 3-({[(4R)-7-{methyl[4-(oxan-4-yl)phenyl]amino}-3,4-dihydro-2H-1-benzopyran-4-yl]methyl}amino)pyridine-4-carboxylic acid]
